This test deals with T1, human TGR5 (Homo sapiens, UniProt Q8TDU6).
T1 construct: expressed in transfected cells; host or cells: HEK293
T1 sequence (Q8TDU6 1-330): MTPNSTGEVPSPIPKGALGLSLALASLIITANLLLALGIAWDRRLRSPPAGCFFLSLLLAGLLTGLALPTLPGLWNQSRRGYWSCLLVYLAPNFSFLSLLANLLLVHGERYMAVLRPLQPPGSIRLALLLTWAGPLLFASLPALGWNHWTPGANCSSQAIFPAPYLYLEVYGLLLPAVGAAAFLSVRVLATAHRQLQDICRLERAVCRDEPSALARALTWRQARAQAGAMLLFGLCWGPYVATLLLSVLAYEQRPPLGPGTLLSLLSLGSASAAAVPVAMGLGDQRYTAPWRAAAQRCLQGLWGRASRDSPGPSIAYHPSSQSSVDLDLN
Nature of the test: Cell-based TGR5 assay (cAMP generation, HTRF). Particulars: HEK293 cells stably transfected with human TGR5; cAMP by HTRF; 30 minutes at 37° C.; read-out: pEC50 Human TGR5 (converted). In a few lines:
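First, compounds in 3-fold serial dilution were placed in HBSS with 10 mM HEPES pH 7.4 and 0.5 mM IBMX. Next, human TGR5-expressing HEK293 cells were added and incubated 30 min at 37° C. Finally, cAMP was detected by HTRF and pEC50 derived by logistic fitting.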
(In TR-FRET formats the signal depends on donor and acceptor labels being close together.)
Consider `O=C(CCCC1CN(S(=O)(=O)c2ccc(Cl)c(COC3(c4cnccc4-c4ccccc4OC4CC4)CC3)c2)C1)NC[C@H](O)[C@@H](O)[C@H](O)[C@H](O)CO` [Compound I-453, 4-{1-[4-chloro-3-({1-[4-(2-cyclopropoxyphenyl)pyridin-3-yl]cyclopropoxy}methyl)benzenesulfonyl]azetidin-3-yl}-N-[(2S,3R,4R,5R)-2,3,4,5,6-pentahydroxyhexyl]butanamide], for which the EC50 was < 100 nM. `Cc1cc(COC2(c3cnccc3-c3ccccc3OC3COC3)CC2)c(Cl)cc1CCCCNC(=O)NC[C@H](O)[C@@H](O)[C@H](O)[C@H](O)CO` (stereo in doubt) [Compound I-190, 1-(4-{5-chloro-2-methyl-4-[(1-{4-[2-(oxetan-3-yloxy)phenyl]pyridin-3-yl}cyclopropoxy)methyl]phenyl}butyl)-3-[(2S,3R,4R,5R)-2,3,4,5,6-pentahydroxyhexyl]urea]: the EC50 is < 100 nM. For `O=C([C@@H](O)[C@@H](O)[C@H](O)[C@@H](O)CO)N(CCCCSc1ccc(Cl)c(CNC2(c3cnccc3-c3ccccc3OC3CC3)CC2)c1)CCOCCO` [Compound I-533, (2S,3S,4R,5S)-N-[4-({4-chloro-3-[({1-[4-(2-cyclopropoxyphenyl)pyridin-3-yl]cyclopropyl}amino)methyl]phenyl}sulfanyl)butyl]-2,3,4,5,6-pentahydroxy-N-[2-(2-hydroxyethoxy)ethyl]hexanamide], the EC50 was < 100 nM.

`O=C([C@@H](O)[C@@H](O)[C@H](O)[C@@H](O)CO)N(CCCSc1ccc(Cl)c(COC2(c3cnccc3-c3ccccc3OC3CC3)CC2)c1)CC1CCOCC1` [Compound I-522, (2S,3S,4R,5S)-N-(3-{[4-chloro-3-({1-[4-(2-cyclopropoxyphenyl)pyridin-3-yl]cyclopropoxy}methyl)phenyl]sulfanyl}propyl)-2,3,4,5,6-pentahydroxy-N-(oxan-4-ylmethyl)hexanamide]: the EC50 is 126 to 1000 nM. Then `CS(=O)(=O)NCCCCN(CCCSc1ccc(Cl)c(COC2(c3cnccc3-c3ccccc3OC3CC3)CC2)c1)C(=O)[C@@H](O)[C@@H](O)[C@H](O)[C@@H](O)CO` [Compound I-580, (2S,3S,4R,5S)-N-(3-{[4-chloro-3-({1-[4-(2-cyclopropoxyphenyl)pyridin-3-yl]cyclopropoxy}methyl)phenyl]sulfanyl}propyl)-2,3,4,5,6-pentahydroxy-N-(4-methanesulfonamidobutyl) hexanamide], with 126 to 1000 nM; and `CC(CCCC(=O)O)c1ccc(Cl)c(CNC2(c3cnccc3-c3ccccc3OC3CC3)CC2)c1` (single isomer, unassigned) [Compound I-248], with < 100 nM. On to `Clc1ccc(Cl)c(COC2(c3cnccc3-c3ccccc3OC3CC3)CC2)c1` [Compound I-46, 4-(2-cyclopropoxyphenyl)-3-{1-[(2,5-dichlorophenyl)methoxy]cyclopropyl}pyridine], for which the EC50 is < 100 nM.

Take `NC(=O)CN(C[C@H](O)[C@@H](O)[C@H](O)[C@H](O)CO)C(=O)CCCCc1cc(Cl)c(COC2(c3cnccc3-c3ccccc3OC3CC3)CC2)cc1Cl` (stereo in doubt) [Compound I-208, N-(carbamoylmethyl)-5-[2,5-dichloro-4-({1-[4-(2-cyclopropoxyphenyl)pyridin-3-yl]cyclopropoxy}methyl)phenyl]-N-[(2S,3R,4R,5R)-2,3,4,5,6-pentahydroxyhexyl]pentanamide]: the EC50 is < 100 nM.

With `CN(CCCCSc1ccc(Cl)c(CNC2(c3cnccc3-c3ccccc3OC3CC3)CC2)c1)C(=O)[C@@H](O)[C@@H](O)[C@H](O)[C@@H](O)CO` [Compound I-506, (2S,3S,4R,5S)-N-[4-({4-chloro-3-[({1-[4-(2-cyclopropoxyphenyl)pyridin-3-yl]cyclopropyl}amino)methyl]phenyl}sulfanyl)butyl]-2,3,4,5,6-pentahydroxy-N-methylhexanamide], the EC50 was < 100 nM.

For `CS(=O)(=O)CCCN(CCCCSc1ccc(Cl)c(COC2(c3cnccc3-c3ccccc3OC3CC3)CC2)c1)C(=O)[C@@H](O)[C@@H](O)[C@H](O)[C@@H](O)CO` [Compound I-523, (2S,3S,4R,5S)-N-(4-{[4-chloro-3-({1-[4-(2-cyclopropoxyphenyl)pyridin-3-yl]cyclopropoxy}methyl)phenyl]sulfanyl}butyl)-2,3,4,5,6-pentahydroxy-N-(3-methanesulfonylpropyl)hexanamide], the EC50 was < 100 nM. Regarding `CC(C)N(CCCCNC(=O)N[C@@H](CO)[C@@H](O)[C@H](O)[C@H](O)CO)S(=O)(=O)c1cc(COC2(c3cnccc3-c3ccccc3OC3CC3)CC2)c(Cl)cc1F` [Compound I-763, 4-chloro-5-((1-(4-(2-cyclopropoxyphenyl)pyridin-3-yl)cyclopropoxy)methyl)-2-fluoro-N-isopropyl-N-(4-(3-((2S,3R,4S,5R)-1,3,4,5,6-pentahydroxyhexan-2-yl)ureido)butyl) benzenesulfonamide], the EC50 is < 100 nM. Regarding `O=C([C@@H](O)[C@@H](O)[C@H](O)[C@@H](O)CO)N(CCCCSc1ccc(Cl)c(CNC2(c3cnccc3-c3ccccc3OC3CC3)CC2)c1)C1CCS(=O)(=O)CC1` [Compound I-581, (2S,3S,4R,5S)-N-[4-({4-chloro-3-[({1-[4-(2-cyclopropoxyphenyl)pyridin-3-yl]cyclopropyl}amino)methyl]phenyl}sulfanyl)butyl]-N-(1,1-dioxo-1λ^6-thian-4-yl)-2,3,4,5,6-pentahydroxyhexanamide], the EC50 was < 100 nM.

`CS(=O)(=O)CCN(CCCCCSc1ccc(Cl)c(COC2(c3cnccc3-c3ccccc3OC3CC3)CC2)c1)C(=O)[C@@H](O)[C@@H](O)[C@H](O)[C@@H](O)CO` [Compound I-603, (2S,3S,4R,5S)-N-(5-{[4-chloro-3-({1-[4-(2-cyclopropoxyphenyl)pyridin-3-yl]cyclopropoxy}methyl)phenyl]sulfanyl}pentyl)-2,3,4,5,6-pentahydroxy-N-(2-methanesulfonylethyl)hexanamide]: the EC50 is < 100 nM. For `O=C(CCCSc1ccc(Cl)c(COC2(c3cnccc3-c3ccccc3OC3CC3)CC2)c1)N(C[C@@H](O)[C@H](O)[C@@H](O)[C@@H](O)CO)[C@H]1CC[C@@H](O)CC1` [Compound I-688, 4-{[4-chloro-3-({1-[4-(2-cyclopropoxyphenyl)pyridin-3-yl]cyclopropoxy}methyl)phenyl]sulfanyl}-N-[(2R,3S,4S,5S)-2,3,4,5,6-pentahydroxyhexyl]-N-[(1s,4s)-4-hydroxycyclohexyl]butanamide], the EC50 was 126 to 1000 nM. Regarding `CC(=O)NCCCN(CCCSc1ccc(Cl)c(CNC2(c3cnccc3-c3ccccc3OC3CC3)CC2)c1)C(=O)[C@@H](O)[C@@H](O)[C@H](O)[C@@H](O)CO` [Compound I-589, (2S,3S,4R,5S)-N-[3-({4-chloro-3-[({1-[4-(2-cyclopropoxyphenyl)pyridin-3-yl]cyclopropyl}amino)methyl]phenyl}sulfanyl)propyl]-N-(3-acetamidopropyl)-2,3,4,5,6-pentahydroxyhexanamide], the EC50 was 126 to 1000 nM. Take `O=C(N[C@@H](CO)[C@@H](O)[C@H](O)[C@H](O)CO)c1cccc(OCc2ccc(Cl)c(COC3(c4cnccc4-c4ccccc4OC4CC4)CC3)c2)c1` [Compound I-756, 3-((4-chloro-3-((1-(4-(2-cyclopropoxyphenyl)pyridin-3-yl)cyclopropoxy)methyl)benzyl)oxy)-N-((2S,3R,4S,5R)-1,3,4,5,6-pentahydroxyhexan-2-yl)benzamide]: the EC50 was 126 to 1000 nM.

Regarding `Cc1cc(CNC2(c3cnccc3-c3ccccc3OC3CC3)CC2)c(C)cc1CCCCC(=O)N(C)C[C@H](O)[C@@H](O)[C@H](O)[C@H](O)CO` [Compound I-149, 5-{4-[({1-[4-(2-cyclopropoxyphenyl)pyridin-3-yl]cyclopropyl}amino)methyl]-2,5-dimethylphenyl}-N-methyl-N-[(2S,3R,4R,5R)-2,3,4,5,6-pentahydroxyhexyl]pentanamide], the EC50 is 126 to 1000 nM.

For `O=C([C@@H](O)[C@@H](O)[C@H](O)[C@@H](O)CO)N(CCCCO)CCCCCSc1ccc(Cl)c(CNC2(c3cnccc3-c3ccccc3OC3CC3)CC2)c1` [Compound I-600, (2S,3S,4R,5S)-N-[5-({4-chloro-3-[({1-[4-(2-cyclopropoxyphenyl)pyridin-3-yl]cyclopropyl}amino)methyl]phenyl}sulfanyl)pentyl]-2,3,4,5,6-pentahydroxy-N-(4-hydroxybutyl)hexanamide], the EC50 is < 100 nM. Then `Cc1ccc(SCCCN(CCCS(C)(=O)=O)C(=O)[C@@H](O)[C@@H](O)[C@H](O)[C@@H](O)CO)cc1CNC1(c2cnccc2-c2ccccc2OC2CC2)CC1` [Compound I-544, (2S,3S,4R,5S)-N-[3-({3-[({1-[4-(2-cyclopropoxyphenyl)pyridin-3-yl]cyclopropyl}amino)methyl]-4-methylphenyl}sulfanyl)propyl]-2,3,4,5,6-pentahydroxy-N-(3-methanesulfonylpropyl) hexanamide], with 126 to 1000 nM; and `CC(CCCC(=O)NCCN1CCN(C(=O)NC[C@H](O)[C@@H](O)[C@H](O)[C@H](O)CO)CC1)c1ccc(Cl)c(CNC2(c3cnccc3-c3ccccc3OC3CC3)CC2)c1` (stereo partly drawn) [Compound I-322, 4-[2-(5-{4-chloro-3-[({1-[4-(2-cyclopropoxyphenyl)pyridin-3-yl]cyclopropyl}amino)methyl]phenyl}hexanamido)ethyl]-N-[(2S,3R,4R,5R)-2,3,4,5,6-pentahydroxyhexyl]piperazine-1-carboxamide], with < 100 nM.

Values taken from US12084472B2 (Ardelyx, Inc., priority 2015, dated 2024).
